Data reported in PMC11520566, “Discovery of pyrazole-based analogs as CDK2 inhibitors with apoptotic-inducing activity: design, synthesis and molecular dynamics study” (RSC Advances, 2024).

Columns and labels:
[1] = test system: UO-31; experiment: NCI 60 five dose assay, Renal cancer; assay type: cell-based, human
[2] = test system: PC-3; experiment: NCI 60 five dose assay, Prostate cancer; assay type: cell-based, human
[3] = test system: ACHN; experiment: NCI 60 five dose assay, Renal cancer; assay type: cell-based, human
[4] = test system: UACC-257; experiment: NCI 60 five dose assay, Melanoma; assay type: cell-based, human
[5] = test system: HCT-116 cell line; experiment: MTT cell viability assay; assay type: cell-based; settings: Homo sapiens, read-out: IC50 (cytotoxicity, MTT)
[6] = test system: SK-MEL-28; experiment: NCI 60 five dose assay, Melanoma; assay type: cell-based, human
[7] = test system: COLO 205; experiment: NCI 60 five dose assay, Colon cancer; assay type: cell-based, human
[8] = test system: HCT-15; experiment: NCI 60 five dose assay, Colon cancer; assay type: cell-based, human
[9] = test system: SR; experiment: NCI 60 five dose assay, Leukemia; assay type: cell-based, human
[10] = test system: TK-10; experiment: NCI 60 five dose assay, Renal cancer; assay type: cell-based, human
[11] = test system: SK-OV-3; experiment: NCI 60 five dose assay, Ovarian cancer; assay type: cell-based, human
[12] = test system: MDA-MB-231/ATCC; experiment: NCI 60 five dose assay, Breast cancer; assay type: cell-based, human
[13] = test system: UACC-257; experiment: NCI 60 single dose screen, Melanoma; assay type: cell-based, human; settings: single dose 10 μM
Experimental: The newly synthesized pyrazoles 2a–g, 7a–d, 8a and b, 9, and 10 were submitted to the National Cancer Institute (NCI) Developmental Therapeutics Program (http://www.dtp.nci.nih.gov) for assessment of their potential antiproliferative activity against a panel of NCI 60 cancer cell lines. All compounds were approved for screening against the approved 60 cancer cell lines at a single dose of 10 μM. The human cancer cell lines were derived from 9 variant cancer types including leukemia, melanoma, lung, colon, CNS, ovarian, renal, prostate and breast cancers. The results are presented as percentage of growth inhibition (GI%) of the screened compounds against the full panel of cell lines.
Under sterile conditions, the cell lines were grown in RPMI 1640 media (Gibco, NY, USA) supplemented with 10% fetal bovine serum (Biocell, CA, USA), and […] cell/mL was used to test the growth inhibition activity of the synthesized compounds. The compounds with concentrations ranging from 0.01 to 100 μM were prepared in phosphate buffer saline. Each compound was initially solubilized in dimethyl sulfoxide (DMSO); however, each final dilution contained less than 1% DMSO. Solutions of different concentrations (0.2 mL) were pipetted into the separate well of a microtiter tray in duplicate. Cell culture (1.8 mL) containing a cell population of […] cells per mL was pipetted into each well. Controls, containing only phosphate buffer saline and DMSO at identical dilutions, were also prepared in the same manner. These cultures were incubated in a humidified incubator at 37 °C. The incubator was supplied with 5% CO2 atmosphere. After 48 h, the cells in each well were diluted 10 times with saline and counted using a Coulter counter. The counts were corrected for the dilution.[34]

[14] = test system: OVCAR-8; experiment: NCI 60 five dose assay, Ovarian cancer; assay type: cell-based, human
[15] = test system: 786-0; experiment: NCI 60 five dose assay, Renal cancer; assay type: cell-based, human
[16] = Homo sapiens, read-out: LC50 (the source's name)

With `CC(=NNc1ccc(S(N)(=O)=O)cc1)c1ccc(NN=C2C(=O)NN=C2Nc2ccccc2)cc1` [Compound 4, 4-(2-(1-(4-(2-(5-oxo-3-(phenylamino)-1,5-dihydro-4H-pyrazol-4-ylidene)hydrazinyl)phenyl)ethylidene)hydrazinyl)benzene sulfonamide] the GI50 ([1]; Homo sapiens) was 19.4 µM, the CC50 [1, 16] was > 100 µM and the “Percent Growth” value ([1]; Log10 Concentration -4.0 Molar) was 2%. For the same compound, the “Percent Growth” value ([1]; Log10 Concentration -5.0 Molar) was 69%, the “Percent Growth” value ([1]; Log10 Concentration -6.0 Molar) was 81% and the “Percent Growth” value ([1]; Log10 Concentration -7.0 Molar) was 89%. The “Percent Growth” value ([1]; Log10 Concentration -8.0 Molar) was 84%, the GI50 ([2]; Homo sapiens) was 3.06 µM and the CC50 [2, 16] was 35.8 µM. The “Percent Growth” value ([2]; Log10 Concentration -4.0 Molar) was -95%, the “Percent Growth” value ([2]; Log10 Concentration -5.0 Molar) was 5% and the “Percent Growth” value ([2]; Log10 Concentration -6.0 Molar) was 92%. For the same compound, the “Percent Growth” value ([2]; Log10 Concentration -7.0 Molar) was 95%, the “Percent Growth” value ([2]; Log10 Concentration -8.0 Molar) was 93% and the GI50 ([3]; Homo sapiens) was 5.9 µM. The CC50 [3, 16] was 43 µM, the “Percent Growth” value ([3]; Log10 Concentration -4.0 Molar) was -100% and the “Percent Growth” value ([3]; Log10 Concentration -5.0 Molar) was 36%. For the same compound, the “Percent Growth” value ([3]; Log10 Concentration -6.0 Molar) was 96%, the “Percent Growth” value ([3]; Log10 Concentration -7.0 Molar) was 104% and the “Percent Growth” value ([3]; Log10 Concentration -8.0 Molar) was 94%. The GI50 ([4]; Homo sapiens) was 3.97 µM, the CC50 [4, 16] was 75.5 µM and the “Percent Growth” value ([4]; Log10 Concentration -4.0 Molar) was -59%. The “Percent Growth” value ([4]; Log10 Concentration -5.0 Molar) was 17%, the “Percent Growth” value ([4]; Log10 Concentration -6.0 Molar) was 99% and the “Percent Growth” value ([4]; Log10 Concentration -7.0 Molar) was 93%. The “Percent Growth” value ([4]; Log10 Concentration -8.0 Molar) was 89%, the IC50 [5] was 1.81 µM and the GI50 ([6]; Homo sapiens) was 1.91 µM. For the same compound, the CC50 [6, 16] was 6.99 µM, the “Percent Growth” value ([6]; Log10 Concentration -4.0 Molar) was -93% and the “Percent Growth” value ([6]; Log10 Concentration -5.0 Molar) was -78%. For the same compound, the “Percent Growth” value ([6]; Log10 Concentration -6.0 Molar) was 100%, the “Percent Growth” value ([6]; Log10 Concentration -7.0 Molar) was 109% and the “Percent Growth” value ([6]; Log10 Concentration -8.0 Molar) was 96%. The GI50 ([7]; Homo sapiens) was 3.28 µM, the CC50 [7, 16] was 34.6 µM and the “Percent Growth” value ([7]; Log10 Concentration -4.0 Molar) was -100%. For the same compound, the “Percent Growth” value ([7]; Log10 Concentration -5.0 Molar) was 9%, the “Percent Growth” value ([7]; Log10 Concentration -6.0 Molar) was 94% and the “Percent Growth” value ([7]; Log10 Concentration -7.0 Molar) was 105%. The “Percent Growth” value ([7]; Log10 Concentration -8.0 Molar) was 101%, the GI50 ([8]; Homo sapiens) was 5.29 µM and the CC50 [8, 16] was 42.9 µM. For the same compound, the “Percent Growth” value ([8]; Log10 Concentration -4.0 Molar) was -100%, the “Percent Growth” value ([8]; Log10 Concentration -5.0 Molar) was 36% and the “Percent Growth” value ([8]; Log10 Concentration -6.0 Molar) was 87%. For the same compound, the “Percent Growth” value ([8]; Log10 Concentration -7.0 Molar) was 98%, the “Percent Growth” value ([8]; Log10 Concentration -8.0 Molar) was 99% and the GI50 ([9]; Homo sapiens) was 1.74 µM. For the same compound, the CC50 [9, 16] was 23.6 µM, the “Percent Growth” value ([9]; Log10 Concentration -4.0 Molar) was -87% and the “Percent Growth” value ([9]; Log10 Concentration -5.0 Molar) was -28%. The “Percent Growth” value ([9]; Log10 Concentration -6.0 Molar) was 75%, the “Percent Growth” value ([9]; Log10 Concentration -7.0 Molar) was 93% and the “Percent Growth” value ([9]; Log10 Concentration -8.0 Molar) was 85%. The GI50 ([10]; Homo sapiens) was 18.6 µM, the CC50 [10, 16] was > 100 µM and the “Percent Growth” value ([10]; Log10 Concentration -4.0 Molar) was -25%. For the same compound, the “Percent Growth” value ([10]; Log10 Concentration -5.0 Molar) was 78%, the “Percent Growth” value ([10]; Log10 Concentration -6.0 Molar) was 101% and the “Percent Growth” value ([10]; Log10 Concentration -7.0 Molar) was 102%. For the same compound, the “Percent Growth” value ([10]; Log10 Concentration -8.0 Molar) was 97%, the GI50 ([11]; Homo sapiens) was 2.34 µM and the CC50 [11, 16] was 23.7 µM. For the same compound, the “Percent Growth” value ([11]; Log10 Concentration -4.0 Molar) was -98%, the “Percent Growth” value ([11]; Log10 Concentration -5.0 Molar) was -21% and the “Percent Growth” value ([11]; Log10 Concentration -6.0 Molar) was 92%. The “Percent Growth” value ([11]; Log10 Concentration -7.0 Molar) was 102%, the “Percent Growth” value ([11]; Log10 Concentration -8.0 Molar) was 89% and the GI50 ([12]; Homo sapiens) was 2 µM. The CC50 [12, 16] was 8.28 µM, the “Percent Growth” value ([12]; Log10 Concentration -4.0 Molar) was -100% and the “Percent Growth” value ([12]; Log10 Concentration -5.0 Molar) was -63%. For the same compound, the “Percent Growth” value ([12]; Log10 Concentration -6.0 Molar) was 99%, the “Percent Growth” value ([12]; Log10 Concentration -7.0 Molar) was 99% and the “Percent Growth” value ([12]; Log10 Concentration -8.0 Molar) was 95%. The GI% [13] was 94.37%, the GI50 ([14]; Homo sapiens) was 2.59 µM and the CC50 [14, 16] was 29 µM. For the same compound, the “Percent Growth” value ([14]; Log10 Concentration -4.0 Molar) was -95%, the “Percent Growth” value ([14]; Log10 Concentration -5.0 Molar) was -11% and the “Percent Growth” value ([14]; Log10 Concentration -6.0 Molar) was 93%. The “Percent Growth” value ([14]; Log10 Concentration -7.0 Molar) was 105%, the “Percent Growth” value ([14]; Log10 Concentration -8.0 Molar) was 97% and the GI50 ([15]; Homo sapiens) was 2.14 µM. For the same compound, the CC50 [15, 16] was 24.7 µM, the “Percent Growth” value ([15]; Log10 Concentration -4.0 Molar) was -94% and the “Percent Growth” value ([15]; Log10 Concentration -5.0 Molar) was -22%. For the same compound, the “Percent Growth” value ([15]; Log10 Concentration -6.0 Molar) was 85%, the “Percent Growth” value ([15]; Log10 Concentration -7.0 Molar) was 96% and the “Percent Growth” value ([15]; Log10 Concentration -8.0 Molar) was 92%.
